In patent publication US11116757B2 (priority 2015, dated 2021):

These compounds were tested against DCN1-UBC12 interaction (Homo sapiens (Human), UniProt Q96GG9) (assay: biochemical). Conditions: TR-FRET IC50.
Assay type: binding

Chain of DCN1-UBC12 interaction (Q96GG9 60-248 limits assumed): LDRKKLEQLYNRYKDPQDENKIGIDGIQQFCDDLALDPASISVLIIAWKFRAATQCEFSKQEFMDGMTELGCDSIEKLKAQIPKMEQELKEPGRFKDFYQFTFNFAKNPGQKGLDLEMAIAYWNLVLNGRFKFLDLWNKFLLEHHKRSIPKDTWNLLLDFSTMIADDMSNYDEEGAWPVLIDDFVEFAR

Compound	IC50
CCCC(C)N1CCC(N(Cc2ccccc2)C(=O)Nc2ccc(Cl)cc2)CC1 (stereo not drawn) [A13]	0.083 µM

Same assay, conditions: Table 4, commercial compounds; read-out: TR-FRET IC50

Compound	IC50
O=C(Nc1cccc(Br)c1)C1CCN(C(=O)c2cccc(Cl)c2)CC1 [C3]	22.4 µM
Cc1cccc(NC(=O)C2CCN(C(=O)c3cccc4ccccc34)CC2)c1 [C63]	> 67.6 µM
CC(=O)Nc1cccc(NC(=O)C2CCN(C(=O)c3ccco3)CC2)c1 [C39]	> 67.6 µM
O=C(Nc1ccc(Cl)c(C(F)(F)F)c1)C1CCN(C(=O)c2ccccc2Cl)CC1 [C7]	> 46 µM
O=C(Nc1ccccc1Br)C1CCN(C(=O)c2ccccc2Cl)CC1 [C17]	> 67.6 µM
O=C(Nc1ccc(Cl)c(C(F)(F)F)c1)C1CCN(C(=O)c2ccc(F)cc2)CC1 [C20]	> 67.6 µM
O=C(Nc1cccc(C(F)(F)F)c1)C1CCN(C(=O)c2cccc(F)c2)CC1 [C10]	> 42.9 µM

Same assay, conditions: Table 6, commercial compounds; read-out: TR-FRET IC50

Compound	IC50
CCN(CC)CCNC(=O)c1cnn(-c2nccc(-c3cccs3)n2)c1COC [E31]	> 67.6 µM
Cc1cnc(-n2ncc(C(=O)N3CCN(C(C)C)CC3)c2C2CC2)nc1-c1cccs1 [E40]	> 67.6 µM
CCN(CC)C(=O)c1cnn(-c2nccc(-c3cccs3)n2)c1C1CC1 [E61]	> 71.6 µM
CCN(CCN(C)C)C(=O)c1cnn(-c2ncc(C)c(-c3cccs3)n2)c1COC [E46]	> 67.6 µM
COCCN1CCN(C(=O)c2cnn(-c3nccc(-c4cccs4)n3)c2C(C)C)CC1 [E17]	34.4 µM
CCN(CC)CCN(C)C(=O)c1cnn(-c2nccc(-c3cccs3)n2)c1C1CC1 [E34]	> 67.6 µM
CCOC(=O)N1CCN(C(=O)c2cnn(-c3ncc(C)c(-c4cccs4)n3)c2C)CC1 [E12]	28.3 µM
CCCN1CCN(C(=O)c2cnn(-c3nccc(-c4cccs4)n3)c2C)CC1 [E60]	> 68 µM
COCCN1CCN(C(=O)c2cnn(-c3nccc(-c4cccs4)n3)c2C2CC2)CC1 [E13]	28.8 µM

Same assay, conditions: Table 7, commercial compounds; read-out: TR-FRET IC50

Compound	IC50
Cc1cccc(C(=O)NC2C(=O)Nc3c(c(C)nn3-c3ccccc3)C2c2ccc(C#N)cc2)c1 (stereo not drawn) [F5]	35.1 µM
Cc1nn(C)c2c1C(c1ccc(C(C)(C)C)cc1)C(NC(=O)c1ccccc1)C(=O)N2 (stereo not drawn) [F11]	> 67.6 µM
CCOc1ccc(C2c3c(C)nn(C)c3NC(=O)C2NC(=O)c2cccc(C)c2)cc1OC (stereo not drawn) [F18]	> 67.6 µM

Same assay, conditions: read-out: TR-FRET IC50

Compound	IC50
COc1ccc(CN(C(=O)Nc2ccccc2C)C2CCN(C(C)=O)CC2)cc1 [B84]	> 67.6 µM
CC(=O)N1CCC(N(Cc2ccc(C)o2)C(=O)Nc2cc(Cl)ccc2Cl)CC1 [B89]	> 67.6 µM
Cn1ccc2cc(CN3CCC(N(Cc4ccccc4)C(=O)Nc4cc(F)cc(C(F)(F)F)c4)CC3)ccc21 [A205]	> 20.8 µM
O=C(Nc1cc(F)cc(C(F)(F)F)c1)N(Cc1ccccc1)C1CCN(CCCc2ccccc2)CC1 [A133]	3.21 µM
O=C(c1ccccc1O)N1CCC(c2nc3ccccc3s2)CC1 [D29]	> 67.6 µM
O=C(c1ccc(F)cc1)N1CCCC(c2nc3ccccc3s2)C1 (stereo not drawn) [D16]	> 48.7 µM
CCCC(C)N1CCC(N(Cc2ccccc2)C(=O)Nc2cccc(OC)c2OC)CC1 (stereo not drawn) [A250]	> 59.8 µM
O=C(c1cccc(F)c1)N1CCC(c2nc3ccccc3s2)CC1 [D12]	31.4 µM
CCCC(C)N1CCC(N(Cc2ccccc2)C(=O)Nc2ccc(F)cc2Br)CC1 (stereo not drawn) [A302]	> 86.9 µM
CSc1cccc(NC(=O)NC2CCN(Cc3ccccc3)CC2)c1 [B44]	> 64.5 µM
CCCC(C)N1CCC(N(Cc2ccccc2)C(=O)Nc2ccc3ccccc3c2)CC1 (stereo not drawn) [A10]	0.0789 µM
CCCC(C)N1CCC(N(Cc2ccccc2NC(=O)CCl)C(=O)Nc2cccc(C(F)(F)F)c2)CC1 (stereo not drawn) [A38]	0.208 µM
CCCC(C)N1CCC(N(Cc2ccccc2)C(=O)Nc2cc(F)c(F)cc2F)CC1 (stereo not drawn) [A166]	10.1 µM
CCCN1CCC(NC(=O)Nc2ccc(C)c(Cl)c2)CC1 [B34]	> 55.5 µM
COc1cc(CN2CCC(NC(=O)Nc3ccccc3)CC2)cc(OC)c1OC [B45]	> 65.5 µM
1-Benzyl-1-(1-(4-Fluorobenzyl)Piperidin-4-yl)-3-(3-(Trifluoromethyl)Phenyl)Urea [A171]	12.7 µM
CCCCN1CCC(C(Cc2ccccc2)C(=O)Nc2cccc(C(F)(F)F)c2)CC1 (stereo not drawn) [A156]	7.11 µM
CCCN1CCC(N(CCC(C)C)C(=O)Nc2cccc(C(F)(F)F)c2)CC1 [A130, 1-Isopentyl-1-(1-Propylpiperidin-4-yl)-3-(3-(Trifluoromethyl)Phenyl)Urea]	2.96 µM
CC1CC(N(C)C(=O)Nc2ccccn2)CCN1Cc1ccccc1 (stereo not drawn) [B106]	> 71.5 µM
C=CC(=O)NCc1ccccc1CN(C(=O)Nc1cccc(C(F)(F)F)c1)C1CCN(C(C)CCC)CC1 (stereo not drawn) [A239]	> 51.2 µM
O=C(NC1CCN(Cc2ccc(F)cc2)CC1)C(F)(F)F [A305]	> 92.7 µM
Cn1c(CN2CCC(N(Cc3ccccc3)C(=O)Nc3cc(F)cc(C(F)(F)F)c3)CC2)nc2ccccc21 [A203]	> 20.2 µM
CCCC(C)N1CCC(N(Cc2ccccc2)C(=O)Nc2cc(F)cc(C(F)(F)F)c2)CC1 (stereo not drawn) [A6]	0.058 µM

Compound	IC50
C=CS(=O)(=O)NCCCN(C(=O)Nc1cccc(C(F)(F)F)c1)C1CCN(C(C)CCC)CC1 (stereo not drawn) [drawing 838]	> 24 µM
CCCCN1CCC(N(Cc2ccccc2)C(=O)Nc2cc(F)cc(F)c2)CC1 [A142]	4.26 µM
CCCC(C)N1CCC(N(Cc2ccccc2)C(=O)Nc2cc(F)cc(Cl)c2)CC1 (stereo not drawn) [A67]	0.482 µM
CCCC(C)N1CCC(N(Cc2ccccc2)C(=O)Nc2ccc(NC(C)=O)cc2)CC1 (stereo not drawn) [A291]	> 77.1 µM
CC1CC(NC(=O)NC2CCCNC2=O)CCN1Cc1ccccc1 (stereo not drawn) [B36]	> 57.8 µM
CN(C)c1ccc(CN2CCC(N(Cc3ccccc3)C(=O)Nc3cc(F)cc(C(F)(F)F)c3)CC2)cc1 [A209]	> 21.5 µM
O=C(Nc1cc(F)cc(C(F)(F)F)c1)N(Cc1ccccc1)C1CCN(Cc2cccc(Oc3ccccc3)c2)CC1 [A217]	> 23.9 µM
O=C(c1ccc(Cl)c(Cl)c1)N1CCC(c2nc3ccccc3s2)CC1 [D7]	19.5 µM
O=C(Nc1cc(F)cc(C(F)(F)F)c1)N(Cc1ccccc1)C1CCN(C/C=C/c2ccccc2)CC1 [A143]	4.27 µM
C#Cc1ccccc1CN1CCC(N(Cc2ccccc2)C(=O)Nc2cc(F)cc(C(F)(F)F)c2)CC1 [A123]	1.13 µM
COc1cc(OC)cc(C(=O)N2CCC(c3nc4ccccc4s3)CC2)c1 [D22]	> 67.6 µM
CCCC(C)N1CCC(N(Cc2ccccc2)C(=O)Nc2cccc(Cl)c2F)CC1 (stereo not drawn) [A62]	0.385 µM
C=CC(=O)NCc1cccc(CN(C(=O)Nc2cccc(C(F)(F)F)c2)C2CCN(C(C)CCC)CC2)c1 (stereo not drawn) [drawing 845]	0.018 µM
CCCC(C)N1CCC(N(Cc2ccccc2CNC(=O)CCl)C(=O)Nc2cccc(C(F)(F)F)c2)CC1 (stereo not drawn) [A24]	0.154 µM
CC(C1CCCC1)N1CCC(N(Cc2ccccc2)C(=O)Nc2cc(F)cc(C(F)(F)F)c2)CC1 (stereo not drawn) [A279]	> 7.78 µM
Cc1cccc(CN2CCC(NC(=O)Nc3cccc(C(F)(F)F)c3)CC2)c1 [A155, 1-(1-(3-Methylbenzyl)Piperidin-4-yl)-3-(3-(Trifluoromethyl)Phenyl)Urea]	6.77 µM
CCCC(C)N1CCC(N(Cc2ccccc2)C(=O)Nc2ccc(Cl)c(F)c2)CC1 (stereo not drawn) [A49]	0.265 µM
CN1CC(NC(=O)NC2CCN(Cc3ccccc3)CC2)c2ccccc2C1=O (stereo not drawn) [B17]	55.6 µM
CCCC(C)N1CCC(N(Cc2ccccc2)C(=O)Nc2ccc(Oc3ccc(Cl)cc3)cc2)CC1 (stereo not drawn) [A22]	0.131 µM
CCCC(C)N1CCC(N(Cc2ccccc2)C(=O)NCc2ccc(N)cc2)CC1 (stereo not drawn) [A233]	> 39.4 µM
Cc1ccc(NC(=O)NC2CCN(Cc3ccccc3)CC2)cc1C [B63]	> 67.6 µM
CCCCN1CCC(N(Cc2ccccc2)C(=O)Nc2ccc(F)c(Cl)c2)CC1 [A89]	1.09 µM
CCCC(C)N1CCC(N(Cc2ccccc2)C(=O)Nc2ccc(OC)cc2)CC1 (stereo not drawn) [A158]	7.67 µM

Compound	IC50
O=C(Nc1ccccc1)NC1CCN(Cc2ccccc2)CC1 [B20, 1-(1-Benzylpiperidin-4-yl)-3-Phenylurea]	< 0.0041 µM
CC(=O)c1cccc(NC(=O)NC2CCN(Cc3ccccc3)CC2)c1 [B102]	> 70.6 µM
O=C(Nc1ccc(C(=O)N2CCCC2)cc1)Nc1cccc(C(F)(F)F)c1 [B112]	> 73.5 µM
CC(=O)N1CCC(N(Cc2ccco2)C(=O)Nc2ccc(Br)cc2)CC1 [B73]	> 67.6 µM
CCN1CCC(N(Cc2ccc3c(c2)OCO3)C(=O)Nc2cccc(Br)c2)CC1 [B4]	4.06 µM
CC(=O)O[C@H]1CN(Cc2ccccc2)CC[C@@H]1NC(=O)Nc1cccc(C(F)(F)F)c1 [A160]	7.89 µM
1-Benzyl-1-(1-(Propylsulfonyl)Piperidin-4-yl)-3-(3-(Trifluoromethyl)Phenyl)Urea [A79]	0.81 µM
O=C(Nc1ccccc1C(F)(F)F)NC1CCN(Cc2ccccc2)CC1 [B103]	> 70.7 µM
O=C(Nc1cccc(C(F)(F)F)c1)NC1CCN(Cc2ccccc2F)CC1 [A238, 1-(1-(2-Fluorobenzyl)Piperidin-4-yl)-3-(3-(Trifluoromethyl)Phenyl)Urea]	> 49.4 µM
CCCCN1CCC(N(Cc2ccccc2)C(=O)Nc2cc(F)cc(C(F)(F)F)c2)CC1 [A45]	0.256 µM
O=C(Nc1cccc(C(F)(F)F)c1)N[C@H]1CCN(Cc2ccccc2)C[C@@H]1O [A185]	30 µM
CCOc1ccc(C(=O)N2CCCC(c3nc4ccccc4s3)C2)cc1 (stereo not drawn) [D25]	> 67.6 µM
CCCCN1C(C)CC(N(Cc2ccccc2)C(=O)Nc2cccc(C(F)(F)F)c2)CC1C (stereo not drawn) [A71]	0.589 µM
CCCC(C)N1CCC(N(Cc2cccnc2)C(=O)Nc2cc(F)cc(C(F)(F)F)c2)CC1 (stereo not drawn) [A39]	0.213 µM
CCCC(C)N1CCC(N(Cc2ccccc2)C(=O)Nc2cc(C)cc(C)c2)CC1 (stereo not drawn) [A98]	1.38 µM
CCCC(C)N1CCC(N(Cc2ccccc2)C(=O)Nc2cc(OC)c(OC)c(OC)c2)CC1 (stereo not drawn) [A246]	> 55.6 µM
CCN1CCC(N(Cc2ccco2)C(=O)Nc2ccc(F)c(Cl)c2)CC1 [B104]	> 70.9 µM
C=CS(=O)(=O)NCCCN(C(=O)Nc1cccc(C(F)(F)F)c1)C1CCN(C(C)CCC)CC1 (stereo not drawn) [A220]	> 24.5 µM
CCCC(C)N1CCC(N(Cc2ccccc2)C(=O)Nc2cc(C(F)(F)F)ccc2Cl)CC1 (stereo not drawn) [A101]	1.6 µM
N#Cc1cccc(CN2CCC(N(Cc3ccccc3)C(=O)Nc3cc(F)cc(C(F)(F)F)c3)CC2)c1 [A230]	> 28.7 µM
CCCC(C)N1CCC(N(Cc2ccccc2NC(=O)CCl)C(=O)Nc2cccc(C(F)(F)F)c2)CC1 (stereo not drawn) [drawing 843]	0.208 µM
